Experimental data reported in PubChem BioAssay (NCI).
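These data come from cells grown in 96-well plates and exposed to compound for 48 hours at five concentrations. TGI: concentration producing complete growth inhibition.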

Experiments:
Experiment in all cases: growth of human tumour cells (NCI), 48 h
[1] = tested on: MOLT-4 leukemia
[2] = tested on: HT29 colon
[3] = tested on: M14 melanoma
[4] = tested on: SF-268 CNS
[5] = tested on: K-562 leukemia
[6] = tested on: OVCAR-5 ovarian
[7] = tested on: UACC-62 melanoma
[8] = tested on: NCI-H226 lung
[9] = tested on: HOP-62 NSCLC
[10] = tested on: ACHN renal
[11] = tested on: 786-0 renal
[12] = tested on: HCC-2998 colon
[13] = tested on: OVCAR-8 ovarian
[14] = tested on: TK-10 renal
[15] = tested on: A549 NSCLC
[16] = tested on: MDA-N
[17] = tested on: NCI/ADR-RES ovarian
[18] = tested on: MCF7 breast
[19] = tested on: MDA-MB-231 breast
[20] = tested on: HS 578T breast

Compound | TGI [1] [µM] | TGI [2] [µM] | TGI [3] [µM] | TGI [4] [µM] | TGI [5] [µM] | TGI [6] [µM] | TGI [7] [µM] | TGI [8] [µM] | TGI [9] [µM] | TGI [10] [µM] | TGI [11] [µM] | TGI [12] [µM] | TGI [13] [µM] | TGI [14] [µM] | TGI [15] [µM] | TGI [16] [µM] | TGI [17] [µM] | TGI [18] [µM] | TGI [19] [µM] | TGI [20] [µM]
c1cc2nnsc2s1 | > 100 | > 100 | > 100 | > 100 | > 100 | > 100 | > 100 | > 100 | > 100 | > 100 | > 100 | > 100 | > 100 | > 100 |  |  |  |  |  | 
CC(=O)Nc1ccc(-c2nnc(SCC(=O)Nc3cccc(Cl)c3)o2)cc1 | 51.8 | 31 | 29.5 | 37.8 | > 100 | 40.3 | 33.9 | 48.8 | 36.2 | 28.9 | 23.7 | 37.6 | > 100 | 33.9 | 33.1 |  |  |  |  | 
CCCCN1C(=O)c2c(Br)sc(Br)c2C1=O | 70.6 | 47.1 | > 100 | > 100 | > 100 | > 100 | > 100 | > 100 | > 100 | > 100 | > 100 | > 100 | > 100 | > 100 | 70.3 | > 100 | 88.2 | > 100 | > 100 | 
CC(c1ccc2c(c1)CCC1C2CC2OC23CC=CC(=O)[C@]13C)C1C[C@]2(C)O[C@]2(C)[C@H](O)O1 (some centres undefined) | > 100 | > 100 | 33.7 | > 100 | > 100 | > 100 | > 100 | 72 | 40.3 | > 100 | > 100 | > 100 | > 100 | > 100 | > 100 |  |  |  |  | 
CCOC(=O)CC[C@H](NC(=O)N[C@H](C)c1ccccc1)C(=O)OCC | 52.5 | > 100 | 28.2 |  | > 100 | > 100 | 34.8 | > 100 | > 100 | > 100 | > 100 | 72.3 | > 100 | > 100 | > 100 | 38.2 | 75.9 | > 100 | > 100 | 
CC[C@]12C=CCN3CCC4(c5cc([C@@]6(C(=O)OC)CC7CN(CCc8c6[nH]c6ccccc86)C[C@@H]6CCCC[C@H]76)c(OC)cc5N(C)C4[C@](O)(C(=O)OC)C1OC(C)=O)[C@@H]32 (some centres undefined) | > 100 | < 0.01 | 3.14 | 16.5 |  | 8.83 | 17.8 | 15.3 | 14.4 | 5.53 | 12.5 | < 0.01 |  | 21.8 | 14.6 | < 0.01 | 0.0886 |  | < 0.01 | < 0.01
CC(C)(C)C1CCC2c3c([nH]c4ccccc34)C3C(=O)N(c4ccccc4Cl)C(=O)C3C2C1 (centres undefined) | > 100 | 28.4 | 45.7 | 35.5 | > 100 |  | 45.4 |  | 32.5 | 70.2 | 27.7 | 11.2 | 50 | 51.3 | 86.5 | 29.3 | 44 |  | 24.6 | 35.3
CN(C)C=Nc1c2ccccc2nc2ccccc12 | 9.05 | 14.5 | 16.2 | 13.1 | 22.6 | 32.8 | 7.65 | 9.06 | 25.4 | 34 | 16.9 |  | 18.3 | 40 | 17.3 |  | 34.6 | 12.1 | 21.5 | 6.82
COc1ccc(N2C(=O)C3c4[nH]c5ccccc5c4C4CC(C)(C)CC(C)(C)C4C3C2=O)cc1 (centres undefined) | 36.6 | > 100 | 41.8 | 54 | > 100 |  | 27.6 | 29.3 | 31.3 | 31.9 | 28.3 | > 100 | 11.1 |  | 27.3 |  |  |  |  | 
N#CC1=C2SCCN2C(=O)C(C#N)C12CCCCC2 (centres undefined) | > 100 | > 100 | > 100 | > 100 | > 100 | > 100 | > 100 | > 100 | > 100 | > 100 | > 100 | > 100 | > 100 | > 100 | > 100 | > 100 | > 100 | > 100 | > 100 | 
COc1ccc(NC(C)=O)cc1N1C(=O)/C(=C\c2ccccc2)SC1c1cc(OC)c(OC)c(OC)c1 (centres undefined) | > 100 | > 100 | > 100 | 43.9 | > 100 |  | > 100 | 48.3 | > 100 | > 100 | 49.2 | 47.4 | 71.4 | > 100 | > 100 | > 100 | 41 | > 100 | > 100 | 
Cc1ccc(Cc2nn(C)c(=O)n2N)cc1 |  | > 100 | > 100 |  | > 100 | > 100 | > 100 | > 100 |  | > 100 | > 100 | > 100 | > 100 | > 100 | > 100 | > 100 | > 100 | > 100 | > 100 | 
C[Si](C)(C)c1ccc(-c2c3ccc(-c4cc(Br)cc(Br)c4)nc3nc3nc(-c4cc(Br)cc(Br)c4)ccc23)cc1 |  |  | > 100 | > 100 |  | > 100 | > 100 | > 100 | > 100 | > 100 | > 100 | > 100 |  | > 100 | > 100 | > 100 | > 100 | > 100 | > 100 | 
CC12CCC(=O)N1c1cncnc1N2 (centres undefined) | > 10 | > 10 | > 10 | > 10 | > 10 | > 10 | > 10 | > 10 |  | > 10 | > 10 | > 10 | > 10 | > 10 | > 10 | > 10 | > 10 | > 10 |  | > 10
CCOC(=O)Cn1c2ccc(Br)cc2c2nc3ccccc3nc21 | > 100 | > 100 | > 100 | > 100 | > 100 | > 100 | > 100 | > 100 | > 100 | > 100 | > 100 |  | > 100 | > 100 | > 100 | > 100 | > 100 |  | > 100 | > 100
CC(=O)Nc1cccc(N2C(=O)/C(=C\c3cccc(Oc4ccccc4)c3)S(=O)(=O)C2c2ccccc2)c1 (centres undefined) | 62.6 | > 100 | > 100 |  | 79.2 | > 100 | > 100 | > 100 | > 100 | > 100 | > 100 | > 100 | > 100 | > 100 | > 100 | > 100 | > 100 | > 100 | > 100 | 
CN/C=C(\C(=O)c1ccc(OC)c(OC)c1)c1ccc(OC)cc1 | 62 | 38.2 | 37 | 72.9 | 27.1 |  | 49.6 | 41.5 | 94 | 75.1 | 23.9 |  | 30.4 | 37.9 | > 100 |  |  |  |  | 
CC(=O)O[C@H]1CC[C@H]2[C@@H]3CCC4=CC(=O)C=C[C@]4(O)[C@H]3CC[C@]12C | 25.7 |  | > 100 |  | 27.5 | > 100 | > 90.2 | > 96.7 | > 100 | > 100 | > 100 | > 100 | > 86 | > 100 | > 87.9 | > 60.9 | 46.2 | > 83.5 | > 100 | 
C=CCC1(Sc2ccccn2)Sc2ccc3ccccc3c2-c2c(ccc3ccccc23)S1 | > 100 | > 100 | > 100 | > 100 | > 100 | > 100 | > 100 | > 100 | > 100 | > 100 | > 100 | > 100 | > 100 | > 100 | > 100 |  | > 100 | > 100 | > 100 | > 100
O=c1oc2ccccc2c(O)c1C(c1cnc2ccccc2c1)c1c(O)c2ccccc2oc1=O | 97.7 | > 100 |  | 67.2 | > 100 |  | 35.4 | > 100 | > 100 |  | > 100 |  | > 100 | > 100 |  | 69.5 | > 100 |  | > 100 | 80.6
CC(=O)NC(Cc1ccccc1)NC(=O)O (centres undefined) | > 100 | > 100 | > 100 | > 100 | > 100 | > 100 | > 100 | > 100 | > 100 | > 100 | > 100 | > 100 | > 100 | > 100 | > 100 | > 100 | > 100 | > 100 | > 100 | 
COc1cc2c(c(O)c1OC)C(=O)[C@@H]1CCC(=O)N1C2c1ccccc1 (some centres undefined) | > 100 | > 100 | > 100 | > 100 | > 100 | > 100 | > 100 | > 100 | > 100 | > 100 | > 100 | > 100 | > 100 | > 100 | > 100 | > 100 | > 100 | > 100 |  | > 100
CCOC(=O)Cc1nnc2n(-c3ccccc3)c(=O)c3ccccc3n12 | > 100 | > 100 | > 100 | > 100 | > 100 | > 100 | > 100 | > 100 | > 100 | > 100 | > 100 | > 100 | > 100 | > 100 | > 100 | > 100 | > 100 | > 100 | > 100 | 
O=C1Cc2nc(CO)c(CO)c(CO)c2CO1 |  | > 100 | > 100 | > 100 | > 100 | > 100 | > 100 |  | > 100 | > 100 | > 100 | > 100 | > 100 | > 100 | > 100 |  |  |  |  | 
COc1cc2cc(C(=O)N3CC(CCl)c4ccc([N+](=O)[O-])cc43)[nH]c2c(OC)c1OC (centres undefined) | > 100 | 36.7 | > 100 | > 100 | > 100 | > 100 | > 100 |  | > 100 | > 100 | > 100 | > 100 | > 100 | > 100 | > 100 |  | > 100 | > 100 | > 100 | > 100
C=C(C)[C@@H]1CCC2=C[C@H](C/C(C)=C\C3=CC(C)=C(O3)[C@H]1O)OC2=O | > 100 |  | > 100 | > 100 | > 100 | > 100 | > 100 | > 100 |  | > 100 | > 100 | > 100 | > 100 | > 100 | > 100 |  | > 100 | > 100 | 98.8 | > 100
CNC(=O)C1(C#N)C(c2ccccc2)C(C#N)(C(=O)NC)C1c1ccccc1 (centres undefined) | > 100 | > 100 | > 100 | > 100 | > 100 | > 100 |  | > 100 | > 100 | > 100 | > 100 | > 100 | > 100 | > 100 | > 100 | > 100 | > 100 | > 100 |  | > 100
